Article PMC5161573 (Nature, 2016)

Target: α4β2 nicotinic receptor (α4 subunit) (Homo sapiens, UniProt P17787+P43681, P17787:INS355ER/P17787:DEL356-441/P43681:INS364ER/P43681:DEL365-581)

Q: CN1CCC[C@H]1c1cccnc1 [nicotine] was tested. Which “X-ray co-crystal structure at 3.9 Å” value did it give?
A: Nicotine binds in the classical neurotransmitter site at the α-β interface, almost fully buried from solvent.
